# Results reported in US20080293696A1, “2-Aminoarylcarboxamides Useful as Cancer Chemotherapeutic Agents” (Bayer Pharmaceuticals Corporation, priority 2004, published 2008).
# Counter-ions that a name gives are not always drawn.
# Test system: PAKT/PKB (p-(S473) AKT) in H209 small cell lung carcinoma cells stimulated with Stem Cell Factor
# Assay: PAKT/PKB Cytoblot Assay with H209 cells (SCF-stimulated p-(S473) AKT)
# Format: cell-based
# Conditions: Homo sapiens, NCI-H209, compound 1 hour, SCF 25 ng/mL 5 minutes, group: between 500 nM and 1 μM (units in value)
# Outline: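 H209 SCLC cells kept overnight in RPMI with 0.1% BSA were pretreated 1 h at 37 °C with compound (0.01–10 μM final), then stimulated with SCF 25 ng/mL for 5 min. After formaldehyde/methanol fixation, p-(S473) AKT was detected in-cell with HRP secondary and ECL chemiluminescence, and IC50 was derived.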
row,IC50 [µM],SMILES
1,0.5 to 1,"CCCCN(CCCC)CCCNC(=O)c1cc(CNc2ccccc2C(=O)Nc2ccc3c(c2)OC(F)(F)O3)ccn1 [Example 105, N-[3-(dibutylamino)propyl]-4-{[(2-{[(2,2-difluoro-1,3-benzodioxol-5-yl)amino]carbonyl}phenyl)amino]methyl}pyridine-2-carboxamide]"
2,0.5 to 1,"O=C(NCCc1cnc[nH]1)c1cc(CNc2ccccc2C(=O)Nc2ccc3c(c2)OC(F)(F)O3)ccn1 [Example 94, 4-{[(2-{[(2,2-difluoro-1,3-benzodioxol-5-yl)amino]carbonyl}phenyl)amino]methyl}-N-[2-(1H-imidazol-5-yl)ethyl]pyridine-2-carboxamide]"

row,SMILES,IC50 [µM]
1,"CCCCOCCCNC(=O)c1cc(CNc2ccccc2C(=O)Nc2ccc3c(c2)OC(F)(F)O3)ccn1 [Example 112, N-(3-butoxypropyl)-4-{[(2-{[(2,2difluoro-1,3-benzodioxol-5-yl)amino]carbonyl}phenyl)amino]methyl}pyridine-2-carboxamide]",0.5 to 1

# Same assay, conditions: Homo sapiens, NCI-H209, compound 1 hour, SCF 25 ng/mL 5 minutes, group: between 1 and 3 μM
row,IC50 [µM],SMILES
1,1 to 3,"O=C(NCCCO)c1cc(CNc2ccccc2C(=O)Nc2ccc3c(c2)OC(F)(F)O3)ccn1 [Example 93, 4-{[(2-{[(2,2-difluoro-1,3-benzodioxol-5-yl)amino]carbonyl}phenyl)amino]methyl}-N-(3-hydroxypropyl)pyridine-2-carboxamide]"
2,1 to 3,"Cc1cccc(CNC(=O)Nc2cc(CNc3ccccc3C(=O)Nc3ccc4c(c3)OC(F)(F)O4)ccn2)c1 [Example 171, N-(2,2-difluoro-1,3-benzodioxol-5-yl)-2-({[2-({[(3-methylbenzyl)amino]carbonyl}amino)pyridin-4-yl]methyl}amino)benzamide]"
3,1 to 3,"O=C(Nc1ccc2c(c1)OC(F)(F)O2)c1cc(F)ccc1NCc1ccnc(C2=NCCN2)c1 [Example 41, N-(2,2-difluoro-1,3-benzodioxol-5-yl)-2-({[2-(4,5-dihydro-1H-imidazol-2-yl)pyridin-4-yl]methyl}amino)-5-fluorobenzamide]"
4,1 to 3,"COc1ccc(CCNC(=O)c2cc(CNc3ccccc3C(=O)Nc3ccc4c(c3)OC(F)(F)O4)ccn2)cc1 [Example 122, 4-{[(2-{[(2,2-difluoro-1,3-benzodioxol-5-yl)amino]carbonyl}phenyl)amino]methyl}-N-[2-(4-methoxyphenyl)ethyl]pyridine-2-carboxamide]"
5,1 to 3,"O=C(O)CCNC(=O)c1cc(CNc2ccccc2C(=O)Nc2ccc3c(c2)OC(F)(F)O3)ccn1 [Example 99, N-[(4-{[(2-{[(2,2-difluoro-1,3-benzodioxol-5-yl)amino]carbonyl}phenyl)amino]methyl}pyridin-2-yl)carbonyl]beta-alanine]"
6,1 to 3,"CN(C)CC(C)(C)CNC(=O)c1cc(CNc2ccccc2C(=O)Nc2ccc3c(c2)OC(F)(F)O3)ccn1 [Example 121, 4-{[(2-{[(2,2-difluoro-1,3-benzodioxol-5-yl)amino]carbonyl}phenyl)amino]methyl}-N-[3-(dimethylamino)-2,2-dimethylpropyl]pyridine-2-carboxamide]"

# Same assay, conditions: Homo sapiens, NCI-H209, compound 1 hour, SCF 25 ng/mL 5 minutes, group: less than 500 nM
row,SMILES,IC50 [µM]
1,"O=C(NCCCN1CCCC1=O)c1cc(CNc2ccccc2C(=O)Nc2ccc3c(c2)OC(F)(F)O3)ccn1 [Example 123, 4-{[(2-{[(2,2-difluoro-1,3-benzodioxol-5-yl)amino]carbonyl}phenyl)amino]methyl}-N-[3-(2-oxopyrrolodin-1-yl)propyl]pyridine-2-carboxamide]",< 0.5
2,"O=C(NCCCN1CCCCCC1)c1cc(CNc2ccccc2C(=O)Nc2ccc3c(c2)OC(F)(F)O3)ccn1 [Example 113, N-(3-azepan-1-ylpropyl)-4-{[(2-{[(2,2-difluoro-1,3-benzodioxol-5-yl)amino]carbonyl}phenyl)amino]methyl}pyridine-2-carboxamide]",< 0.5
3,"CCOCCCNC(=O)c1cc(CNc2ccccc2C(=O)Nc2ccc3c(c2)OC(F)(F)O3)ccn1 [Example 110, 4-{[(2-{[(2,2-difluoro-1,3-benzodioxol-5-yl)amino]carbonyl}phenyl)amino]methyl}-N-(3-ethoxypropyl)pyridine-2-carboxamide]",< 0.5
4,"CN(C)CCNC(=O)c1cc(CNc2ccccc2C(=O)Nc2ccc3c(c2)OC(F)(F)O3)ccn1 [Example 85, 4-{[(2-{[(2,2-difluoro-1,3-benzodioxol-5-yl)amino]carbonyl}phenyl)amino]methyl}-N-[2-(dimethylamino)ethyl]pyridine-2-carboxamide]",< 0.5
5,"CC(C)OCCCNc1cc(CNc2ccccc2C(=O)Nc2ccc3c(c2)OC(F)(F)O3)ccn1 [Example 140, N-(2,2-difluoro-1,3-benzodioxol-5-yl)-2-[({2-[(3-isopropoxypropyl)amino]pyridin-4-yl}methyl)amino]benzamide trifluoroacetate]",< 0.5

# Now from value to compound:
row,IC50 [µM],SMILES
1,< 0.5,"CC(=O)OCC(=O)Nc1cc(CNc2ccccc2C(=O)Nc2ccc3c(c2)OC(F)(F)O3)ccn1 [Example 156, 2-[(4-{[(2-{[(2,2-difluoro-1,3-benzodioxol-5-yl)amino]carbonyl}phenyl)amino]methyl}pyridin-2-yl)aminol-2-oxoethyl acetate]"
2,< 0.5,"O=C(Nc1ccc2c(c1)C(F)(F)OC(F)(F)O2)c1ccccc1NCc1ccncc1 [Example 2, 2-[(pyridin-4-ylmethyl)amino]-N-(2,2,4,4-tetrafluoro-4H-1,3-benzodioxin-6-yl)benzamide]"
3,< 0.5,"O=C(Nc1ccc2c(c1)OC(F)(F)C(F)(F)O2)c1ccc(F)cc1NCc1ccncc1 [Example 18, 4-fluoro-2-[(pyridin-4-ylmethyl)amino]-N-(2,2,3,3-tetrafluoro-2,3-dihydro-1,4-benzodioxin-6-yl)benzamide]"
4,< 0.5,"CN(C)CCCNc1cc(CNc2ccccc2C(=O)Nc2ccc3c(c2)OC(F)(F)O3)ccn1 [Example 143, N-(2,2-difluoro-1,3-benzodioxol-5-yl)-2-{[(2-{[3-(dimethylamino)propyl]amino}pyridin-4-yl)methyl]amino}benzamidebis(trifluoroacetate)]"
5,< 0.5,"COC(=O)c1cc(CNc2ccccc2C(=O)Nc2ccc3c(c2)OC(F)(F)O3)ccn1 [Example 76, methyl 4-{[(2-{[(2,2-difluoro-1,3-benzodioxol-5-yl)amino]-carbonyl}phenyl)amino]methyl}pyridine-2-carboxylate]"
6,< 0.5,"COCC(=O)Nc1cc(CNc2ccccc2C(=O)Nc2ccc3c(c2)OC(F)(F)O3)ccn1 [Example 155, N-(2,2-difluoro-1,3-benzodioxol-5-yl)-2-[({2-[(methoxyacetyl)amino]pyridin-4-yl}methyl)amino]benzamide]"
7,< 0.5,"CCNC(=O)c1cc(CNc2cc(F)ccc2C(=O)Nc2ccc3c(c2)OC(F)(F)O3)ccn1 [Example 47, 4-{[(2-{[(2,2-difluoro-1,3-benzodioxol-5-yl)amino]carbonyl}-5-fluorophenyl)amino]methyl}-N-ethylpyridine-2-carboxamide]"
8,< 0.5,"COC(C)C(=O)Nc1cc(CNc2ccccc2C(=O)Nc2ccc3c(c2)OC(F)(F)O3)ccn1 (centres unmarked) [Example 151, N-(2,2-difluoro-1,3-benzodioxol-5-yl)-2-[({2-[(2-methoxypropanoyl)amino]pyridin-4yl}methyl)amino]benzamide]"
9,< 0.5,"CCNC(=O)c1cc(CNc2ccc(F)cc2C(=O)Nc2ccc3c(c2)OC(F)(F)O3)ccn1 [Example 46, 4-{[(2-{[(2,2-difluoro-1,3-benzodioxol-5-yl)amino]carbonyl}-4-fluorophenyl)amino]methyl}-N-ethylpyridine-2-carboxamide]"
